{"source": "PubChem BioAssay (NCI)", "assay_in_all_cases": "growth of human tumour cells (NCI), 48 h", "key": {"[1]": {"test_system": "786-0 renal"}, "[2]": {"test_system": "A498 renal"}, "[3]": {"test_system": "A549 NSCLC"}, "[4]": {"test_system": "ACHN renal"}, "[5]": {"test_system": "BT-549 breast"}, "[6]": {"test_system": "CAKI-1 renal"}, "[7]": {"test_system": "CCRF-CEM leukemia"}, "[8]": {"test_system": "COLO 205 colon"}, "[9]": {"test_system": "DU-145 prostate"}, "[10]": {"test_system": "EKVX NSCLC"}, "[11]": {"test_system": "HCC-2998 colon"}, "[12]": {"test_system": "HCT-116 colon"}, "[13]": {"test_system": "HCT-15 colon"}, "[14]": {"test_system": "HL-60(TB) leukemia"}, "[15]": {"test_system": "HOP-62 NSCLC"}, "[16]": {"test_system": "HOP-92 NSCLC"}, "[17]": {"test_system": "HS 578T breast"}, "[18]": {"test_system": "HT29 colon"}, "[19]": {"test_system": "IGROV1 ovarian"}, "[20]": {"test_system": "K-562 leukemia"}, "[21]": {"test_system": "KM12 colon"}, "[22]": {"test_system": "LOX IMVI melanoma"}, "[23]": {"test_system": "M14 melanoma"}, "[24]": {"test_system": "MALME-3M melanoma"}, "[25]": {"test_system": "MDA-MB-231 breast"}, "[26]": {"test_system": "MDA-MB-435"}, "[27]": {"test_system": "MDA-N"}, "[28]": {"test_system": "MOLT-4 leukemia"}, "[29]": {"test_system": "NCI-H23 lung"}, "[30]": {"test_system": "NCI-H460 lung"}, "[31]": {"test_system": "NCI-H522 lung"}, "[32]": {"test_system": "NCI/ADR-RES ovarian"}, "[33]": {"test_system": "OVCAR-3 ovarian"}, "[34]": {"test_system": "OVCAR-4 ovarian"}, "[35]": {"test_system": "OVCAR-5 ovarian"}, "[36]": {"test_system": "OVCAR-8 ovarian"}, "[37]": {"test_system": "PC-3 prostate"}, "[38]": {"test_system": "RPMI-8226 leukemia"}, "[39]": {"test_system": "SF-268 CNS"}, "[40]": {"test_system": "SF-295 CNS"}, "[41]": {"test_system": "SF-539 CNS"}, "[42]": {"test_system": "SK-MEL-2 melanoma"}, "[43]": {"test_system": "SK-MEL-28 melanoma"}, "[44]": {"test_system": "SK-MEL-5 melanoma"}, "[45]": {"test_system": "SN12C renal"}, "[46]": {"test_system": "SNB-19 CNS"}, "[47]": {"test_system": "SNB-75 CNS"}, "[48]": {"test_system": "SR leukemia"}, "[49]": {"test_system": "SW-620 colon"}, "[50]": {"test_system": "TK-10 renal"}, "[51]": {"test_system": "U251 CNS"}, "[52]": {"test_system": "UACC-257 melanoma"}, "[53]": {"test_system": "UACC-62 melanoma"}, "[54]": {"test_system": "UO-31 renal"}}, "note": "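96-well plates; 48 h exposure; 5 concentrations. Endpoints by linear interpolation between flanking doses. Not reached: highest tested concentration assigned. GI50 is the concentration that inhibits growth by half. Definition used: TGI = concentration required for complete inhibition of growth.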"}
{"molecule": "COc1cc(CCN)c2c(c1OC)SSSSS2", "values": [{"measurement": "GI50", "setting": "[1]", "result": 1040, "unit": "nM"}, {"measurement": "TGI", "setting": "[1]", "result": 2220, "unit": "nM"}, {"measurement": "GI50", "setting": "[2]", "result": 1980, "unit": "nM"}, {"measurement": "TGI", "setting": "[2]", "result": 3640, "unit": "nM"}, {"measurement": "GI50", "setting": "[3]", "result": 1380, "unit": "nM"}, {"measurement": "TGI", "setting": "[3]", "result": 2710, "unit": "nM"}, {"measurement": "GI50", "setting": "[4]", "result": 450, "unit": "nM"}, {"measurement": "TGI", "setting": "[4]", "result": 1610, "unit": "nM"}, {"measurement": "GI50", "setting": "[5]", "result": 793, "unit": "nM"}, {"measurement": "TGI", "setting": "[5]", "result": 2230, "unit": "nM"}, {"measurement": "GI50", "setting": "[6]", "result": 503, "unit": "nM"}, {"measurement": "TGI", "setting": "[6]", "result": 1110, "unit": "nM"}, {"measurement": "GI50", "setting": "[7]", "result": 395, "unit": "nM"}, {"measurement": "GI50", "setting": "[8]", "result": 18.4, "unit": "nM"}, {"measurement": "TGI", "setting": "[8]", "result": 78.3, "unit": "nM"}, {"measurement": "GI50", "setting": "[9]", "result": 276, "unit": "nM"}, {"measurement": "TGI", "setting": "[9]", "result": 1220, "unit": "nM"}, {"measurement": "GI50", "setting": "[10]", "result": 1260, "unit": "nM"}, {"measurement": "TGI", "setting": "[10]", "result": 2590, "unit": "nM"}, {"measurement": "GI50", "setting": "[11]", "result": 384, "unit": "nM"}, {"measurement": "TGI", "setting": "[11]", "result": 2080, "unit": "nM"}, {"measurement": "GI50", "setting": "[12]", "result": 220, "unit": "nM"}, {"measurement": "GI50", "setting": "[13]", "result": 319, "unit": "nM"}, {"measurement": "TGI", "setting": "[13]", "result": 1440, "unit": "nM"}, {"measurement": "GI50", "setting": "[14]", "result": 1570, "unit": "nM"}, {"measurement": "TGI", "setting": "[14]", "result": 5090, "unit": "nM"}, {"measurement": "GI50", "setting": "[15]", "result": 1810, "unit": "nM"}, {"measurement": "TGI", "setting": "[15]", "result": 3300, "unit": "nM"}, {"measurement": "GI50", "setting": "[16]", "result": 1420, "unit": "nM"}, {"measurement": "TGI", "setting": "[16]", "result": 2960, "unit": "nM"}, {"measurement": "GI50", "setting": "[17]", "result": 2110, "unit": "nM"}, {"measurement": "TGI", "setting": "[17]", "result": 5170, "unit": "nM"}, {"measurement": "GI50", "setting": "[18]", "result": 340, "unit": "nM"}, {"measurement": "TGI", "setting": "[18]", "result": 1390, "unit": "nM"}, {"measurement": "GI50", "setting": "[19]", "result": 336, "unit": "nM"}, {"measurement": "TGI", "setting": "[19]", "result": 1550, "unit": "nM"}, {"measurement": "GI50", "setting": "[20]", "result": 629, "unit": "nM"}, {"measurement": "TGI", "setting": "[20]", "result": "> 100000", "unit": "nM"}, {"measurement": "GI50", "setting": "[21]", "result": 1640, "unit": "nM"}, {"measurement": "TGI", "setting": "[21]", "result": 3090, "unit": "nM"}, {"measurement": "GI50", "setting": "[22]", "result": 12.7, "unit": "nM"}, {"measurement": "GI50", "setting": "[23]", "result": 85, "unit": "nM"}, {"measurement": "TGI", "setting": "[23]", "result": 676, "unit": "nM"}, {"measurement": "GI50", "setting": "[24]", "result": 2080, "unit": "nM"}, {"measurement": "TGI", "setting": "[24]", "result": 4090, "unit": "nM"}, {"measurement": "GI50", "setting": "[25]", "result": 1490, "unit": "nM"}, {"measurement": "TGI", "setting": "[25]", "result": 2920, "unit": "nM"}, {"measurement": "GI50", "setting": "[26]", "result": 1630, "unit": "nM"}, {"measurement": "TGI", "setting": "[26]", "result": 3320, "unit": "nM"}, {"measurement": "GI50", "setting": "[27]", "result": 706, "unit": "nM"}, {"measurement": "TGI", "setting": "[27]", "result": 2210, "unit": "nM"}, {"measurement": "GI50", "setting": "[28]", "result": 64.6, "unit": "nM"}, {"measurement": "TGI", "setting": "[28]", "result": "> 100000", "unit": "nM"}, {"measurement": "GI50", "setting": "[29]", "result": 478, "unit": "nM"}, {"measurement": "TGI", "setting": "[29]", "result": 1790, "unit": "nM"}, {"measurement": "GI50", "setting": "[30]", "result": 767, "unit": "nM"}, {"measurement": "TGI", "setting": "[30]", "result": 2110, "unit": "nM"}, {"measurement": "GI50", "setting": "[31]", "result": 203, "unit": "nM"}, {"measurement": "TGI", "setting": "[31]", "result": 849, "unit": "nM"}, {"measurement": "GI50", "setting": "[32]", "result": 1630, "unit": "nM"}, {"measurement": "TGI", "setting": "[32]", "result": 3730, "unit": "nM"}, {"measurement": "GI50", "setting": "[33]", "result": 204, "unit": "nM"}, {"measurement": "TGI", "setting": "[33]", "result": 538, "unit": "nM"}, {"measurement": "GI50", "setting": "[34]", "result": 1050, "unit": "nM"}, {"measurement": "TGI", "setting": "[34]", "result": 2510, "unit": "nM"}, {"measurement": "GI50", "setting": "[35]", "result": 591, "unit": "nM"}, {"measurement": "TGI", "setting": "[35]", "result": 1480, "unit": "nM"}, {"measurement": "GI50", "setting": "[36]", "result": 1220, "unit": "nM"}, {"measurement": "TGI", "setting": "[36]", "result": 2710, "unit": "nM"}, {"measurement": "GI50", "setting": "[37]", "result": 1590, "unit": "nM"}, {"measurement": "TGI", "setting": "[37]", "result": 2930, "unit": "nM"}, {"measurement": "GI50", "setting": "[38]", "result": 287, "unit": "nM"}, {"measurement": "TGI", "setting": "[38]", "result": 1770, "unit": "nM"}, {"measurement": "GI50", "setting": "[39]", "result": 1950, "unit": "nM"}, {"measurement": "TGI", "setting": "[39]", "result": 4760, "unit": "nM"}, {"measurement": "GI50", "setting": "[40]", "result": 1790, "unit": "nM"}, {"measurement": "TGI", "setting": "[40]", "result": 3990, "unit": "nM"}, {"measurement": "GI50", "setting": "[41]", "result": 1250, "unit": "nM"}, {"measurement": "TGI", "setting": "[41]", "result": 2620, "unit": "nM"}, {"measurement": "GI50", "setting": "[42]", "result": 1100, "unit": "nM"}, {"measurement": "TGI", "setting": "[42]", "result": 2610, "unit": "nM"}, {"measurement": "GI50", "setting": "[43]", "result": 1790, "unit": "nM"}, {"measurement": "TGI", "setting": "[43]", "result": 3430, "unit": "nM"}, {"measurement": "GI50", "setting": "[44]", "result": 712, "unit": "nM"}, {"measurement": "TGI", "setting": "[44]", "result": 2230, "unit": "nM"}, {"measurement": "GI50", "setting": "[45]", "result": 1130, "unit": "nM"}, {"measurement": "TGI", "setting": "[45]", "result": 2380, "unit": "nM"}, {"measurement": "GI50", "setting": "[46]", "result": 2450, "unit": "nM"}, {"measurement": "TGI", "setting": "[46]", "result": 4720, "unit": "nM"}, {"measurement": "GI50", "setting": "[47]", "result": 1500, "unit": "nM"}, {"measurement": "TGI", "setting": "[47]", "result": 2870, "unit": "nM"}, {"measurement": "GI50", "setting": "[48]", "result": 113, "unit": "nM"}, {"measurement": "TGI", "setting": "[48]", "result": 679, "unit": "nM"}, {"measurement": "GI50", "setting": "[49]", "result": 101, "unit": "nM"}, {"measurement": "TGI", "setting": "[49]", "result": 283, "unit": "nM"}, {"measurement": "GI50", "setting": "[50]", "result": 1420, "unit": "nM"}, {"measurement": "TGI", "setting": "[50]", "result": 3030, "unit": "nM"}, {"measurement": "GI50", "setting": "[51]", "result": 1080, "unit": "nM"}, {"measurement": "TGI", "setting": "[51]", "result": 2460, "unit": "nM"}, {"measurement": "GI50", "setting": "[52]", "result": 2580, "unit": "nM"}, {"measurement": "TGI", "setting": "[52]", "result": 6800, "unit": "nM"}, {"measurement": "GI50", "setting": "[53]", "result": 1370, "unit": "nM"}, {"measurement": "TGI", "setting": "[53]", "result": 2970, "unit": "nM"}, {"measurement": "GI50", "setting": "[54]", "result": 262, "unit": "nM"}, {"measurement": "TGI", "setting": "[54]", "result": 1120, "unit": "nM"}]}
